Measured values: ChEMBL document CHEMBL3885881, “DrugMatrix”

Species: Rattus norvegicus
Test: DrugMatrix - Regimen: Daily Repeat
Assay type: toxicity, organism-based, Sprague-Dawley
Design: regimen Daily Repeat, gender Male, age 6-8 weeks
Conditions: in vivo, po, route oral GAVAGE, vehicle 100 % SALINE; for ABSOLUTE BASOPHIL / ABSOLUTE EOSINOPHIL / ABSOLUTE LYMPHOCYTE / ABSOLUTE MONOCYTE / ABSOLUTE SEGMENTED NEUTROPHIL / BASOPHIL / EOSINOPHIL / ERYTHROCYTE COUNT / HEMATOCRIT / HEMOGLOBIN / LEUKOCYTE COUNT / LYMPHOCYTE / MEAN CORPUSCULAR HEMOGLOBIN / MEAN CORPUSCULAR HEMOGLOBIN CONCENTRATION / MEAN CORPUSCULAR VOLUME / MONOCYTE / NEUTROPHIL / NUCLEATED RED BLOOD CELLS / PLATELET COUNT: tissue Blood; for ALANINE AMINOTRANSFERASE / ALBUMIN / ALKALINE PHOSPHATASE / ASPARTATE AMINOTRANSFERASE / BLOOD UREA NITROGEN / CARBON DIOXIDE / CHLORIDE / CHOLESTEROL / CREATINE PHOSPHOKINASE / CREATININE / GLUCOSE / LACTATE DEHYDROGENASE / LIPASE / PHOSPHORUS / POTASSIUM / SODIUM / TOTAL BILIRUBIN / TOTAL PROTEIN / URIC ACID: tissue Plasma
[1] = 10 mg/kg, […], dose level Low, time 7 day
[2] = 30 mg/kg, 72 h, dose level High, time 3 day
[3] = 30 mg/kg, […], dose level High, time 7 day

O=[As][O-].[Na+] [SODIUM ARSENITE]
ABSOLUTE BASOPHIL [1]: 0 CELLS/uL
ABSOLUTE EOSINOPHIL [1]: 0 CELLS/uL
ABSOLUTE LYMPHOCYTE [1]: 8882.33 CELLS/uL
ABSOLUTE MONOCYTE [1]: 292.83 CELLS/uL
ABSOLUTE SEGMENTED NEUTROPHIL [1]: 1158.17 CELLS/uL
BASOPHIL [1]: 0%
EOSINOPHIL [1]: 0%
ERYTHROCYTE COUNT [1]: 5.16 x10E6/uL
HEMATOCRIT [1]: 33.38%
HEMOGLOBIN [1]: 13.23 G/DL
LEUKOCYTE COUNT [1]: 10.33 x10E3/uL
LYMPHOCYTE [1]: 86.17%
MEAN CORPUSCULAR HEMOGLOBIN [1]: 25.68 pg
MEAN CORPUSCULAR HEMOGLOBIN CONCENTRATION [1]: 39.65 G/DL
MEAN CORPUSCULAR VOLUME [1]: 64.67 fL
MONOCYTE [1]: 2.83%
NEUTROPHIL [1]: 11%
NUCLEATED RED BLOOD CELLS [1]: 0 /100WBC
PLATELET COUNT [1]: 1191.67 x10E3/uL
ALANINE AMINOTRANSFERASE [1]: 43 u/L
ALBUMIN [1]: 4.45 G/DL
ALKALINE PHOSPHATASE [1]: 255.83 u/L
ASPARTATE AMINOTRANSFERASE [1]: 72.83 u/L
BLOOD UREA NITROGEN [1]: 13 mg/dL
CARBON DIOXIDE [1]: 29.83 mmol/L
CHLORIDE [1]: 98.83 MEQ/L
CHOLESTEROL [1]: 69.17 mg/dL
CREATINE PHOSPHOKINASE [1]: 248.67 u/L
CREATININE [1]: 0.18 mg/dL
GLUCOSE [1]: 139.17 mg/dL
LACTATE DEHYDROGENASE [1]: 91.83 u/L
LIPASE [1]: 10.5 u/L
PHOSPHORUS [1]: 11.75 mg/dL
POTASSIUM [1]: 6.25 MEQ/L
SODIUM [1]: 143.22 MEQ/L
TOTAL BILIRUBIN [1]: 0.15 mg/dL
TOTAL PROTEIN [1]: 5.95 G/DL
URIC ACID [1]: 0.93 mg/dL
ABSOLUTE BASOPHIL [2]: 0 CELLS/uL
ABSOLUTE EOSINOPHIL [2]: 24.17 CELLS/uL
ABSOLUTE LYMPHOCYTE [2]: 11880.83 CELLS/uL
ABSOLUTE MONOCYTE [2]: 220.67 CELLS/uL
ABSOLUTE SEGMENTED NEUTROPHIL [2]: 724.33 CELLS/uL
BASOPHIL [2]: 0%
EOSINOPHIL [2]: 0.17%
ERYTHROCYTE COUNT [2]: 5.56 x10E6/uL
HEMATOCRIT [2]: 36.35%
HEMOGLOBIN [2]: 12.9 G/DL
LEUKOCYTE COUNT [2]: 12.85 x10E3/uL
LYMPHOCYTE [2]: 92.17%
MEAN CORPUSCULAR HEMOGLOBIN [2]: 23.27 pg
MEAN CORPUSCULAR HEMOGLOBIN CONCENTRATION [2]: 35.48 G/DL
MEAN CORPUSCULAR VOLUME [2]: 65.6 fL
MONOCYTE [2]: 1.83%
NEUTROPHIL [2]: 5.83%
NUCLEATED RED BLOOD CELLS [2]: 0 /100WBC
PLATELET COUNT [2]: 1116 x10E3/uL
ALANINE AMINOTRANSFERASE [2]: 34.67 u/L
ALBUMIN [2]: 3.6 G/DL
ALKALINE PHOSPHATASE [2]: 172.83 u/L
ASPARTATE AMINOTRANSFERASE [2]: 76.5 u/L
BLOOD UREA NITROGEN [2]: 11.33 mg/dL
CARBON DIOXIDE [2]: 26.83 mmol/L
CHLORIDE [2]: 102.5 MEQ/L
CHOLESTEROL [2]: 75 mg/dL
CREATINE PHOSPHOKINASE [2]: 194.17 u/L
CREATININE [2]: 0.16 mg/dL
GLUCOSE [2]: 125.67 mg/dL
LACTATE DEHYDROGENASE [2]: 103.33 u/L
LIPASE [2]: 11.83 u/L
PHOSPHORUS [2]: 9.52 mg/dL
POTASSIUM [2]: 5.42 MEQ/L
SODIUM [2]: 143 MEQ/L
TOTAL BILIRUBIN [2]: 0.18 mg/dL
TOTAL PROTEIN [2]: 5.17 G/DL
URIC ACID [2]: 0.68 mg/dL
ABSOLUTE BASOPHIL [3]: 0 CELLS/uL
ABSOLUTE EOSINOPHIL [3]: 81.83 CELLS/uL
ABSOLUTE LYMPHOCYTE [3]: 12174.33 CELLS/uL
ABSOLUTE MONOCYTE [3]: 445.83 CELLS/uL
ABSOLUTE SEGMENTED NEUTROPHIL [3]: 2681.33 CELLS/uL
BASOPHIL [3]: 0%
EOSINOPHIL [3]: 0.5%
ERYTHROCYTE COUNT [3]: 5.27 x10E6/uL
HEMATOCRIT [3]: 32.5%
HEMOGLOBIN [3]: 12.83 G/DL
LEUKOCYTE COUNT [3]: 15.38 x10E3/uL
LYMPHOCYTE [3]: 81%
MEAN CORPUSCULAR HEMOGLOBIN [3]: 24.38 pg
MEAN CORPUSCULAR HEMOGLOBIN CONCENTRATION [3]: 39.47 G/DL
MEAN CORPUSCULAR VOLUME [3]: 61.75 fL
MONOCYTE [3]: 2.67%
NEUTROPHIL [3]: 15.83%
NUCLEATED RED BLOOD CELLS [3]: 0 /100WBC
PLATELET COUNT [3]: 966.33 x10E3/uL
ALANINE AMINOTRANSFERASE [3]: 39.67 u/L
ALBUMIN [3]: 4.02 G/DL
ALKALINE PHOSPHATASE [3]: 141.83 u/L
ASPARTATE AMINOTRANSFERASE [3]: 90 u/L
BLOOD UREA NITROGEN [3]: 16 mg/dL
CARBON DIOXIDE [3]: 27 mmol/L
CHLORIDE [3]: 100.17 MEQ/L
CHOLESTEROL [3]: 65.83 mg/dL
CREATINE PHOSPHOKINASE [3]: 152.83 u/L
CREATININE [3]: 0.14 mg/dL
GLUCOSE [3]: 126.83 mg/dL
LACTATE DEHYDROGENASE [3]: 98.33 u/L
LIPASE [3]: 9.83 u/L
PHOSPHORUS [3]: 9.15 mg/dL
POTASSIUM [3]: 5.46 MEQ/L
SODIUM [3]: 142.78 MEQ/L
TOTAL BILIRUBIN [3]: 0.13 mg/dL
TOTAL PROTEIN [3]: 5.38 G/DL
URIC ACID [3]: 0.55 mg/dL
